Assay results reported in patent US20240400561A1, “NOVEL SUBSTITUTED SULFONYLUREA COMPOUNDS AS INHIBITORS OF INTERLEUKIN-1 ACTIVITY” (Viva Star Biosciences (Suzhou) Co., Ltd., priority 2021, published 2024).

Target: T1, NLRP3 (Homo sapiens, UniProt Q96P20)
T1 construct: Seed THP-1 cells (5.56*10^5 cells/mL) containing 1.0 ug/mL LPS; endogenous in cells; host or cells: THP-1 cells
Assay: THP-1 cell assay (LPS priming, nigericin), IL1β release by HTRF; called pyroptosis assay, THP IC50
Type: cell-based
Settings: NLRP3 inhibitory activity; THP-1 cells, 1.0 ug/mL LPS, compound 3 hrs, nigericin 5 uM 1 hr, IL1β in supernatant
Procedure: The following method was used for compound screening. • 1. Seed THP-1 cells (5.56*10^5 cells/mL) containing 1.0 ug/mL LPS (SIGMA, L6529) in 45 uL RPMI 1640 medium (without FBS) into 384-well plate (Thermo Scientific, 164688). • 2. Add 5 uL compound (10 doses starting from 5 uM, 1:3 dilution) or vehicle (0.05% DMSO in medium) to the appropriate wells. • 3. Centrifuge the plates at 1000 rpm for 2 mins and incubate for 3 hrs at 37° C., 5% CO2. • 4. Add 5 uL nigericin (MEC, HY-100381) (final conc. 5 uM) to sample wells and positive control wells; add 5 uL RPMI 1640 medium to negative control wells. • 5. Centrifuge plates at 1000 rpm for 2 mins and incubate for 1 hr at 37° C., 5% CO2. • 6. At the end of the incubation period, centrifuge plates at 1000 rpm for 6 mins and transfer 8 uL supernatant into 384-well assay plates (PerkinElmer, 6008280). • 7. Add 8 ul RPMI 1640 medium into each well and spin down for 10 secs. • 8. Prepare the standard solutions and pre-mixed IL1β antibody solution of Human […] kits (PerkinElmer, 62HIL1BPEH) according to the instruction. • 9. Add 16 uL standard solutions into clear wells of 384-well assay plates. • 10. Add 4 uL pre-mixed IL1β antibody solution to all wells including sample wells, positive control wells, negative control wells and standard solutions wells. • 11. Seal the plates, spin down for 10 secs, incubation for overnight at RT and read on an HTRF® compatible reader (BMG LABTECH, PHERAstar FS). • 12. The concentrations of IL1β for treated wells are calculated by the standard curve. • 13. The IC50 data is fitted to a non-liner regression equation (log inhibitor vs. response—Variable slope four parameters)).

T1 sequence (Q96P20 whole entry): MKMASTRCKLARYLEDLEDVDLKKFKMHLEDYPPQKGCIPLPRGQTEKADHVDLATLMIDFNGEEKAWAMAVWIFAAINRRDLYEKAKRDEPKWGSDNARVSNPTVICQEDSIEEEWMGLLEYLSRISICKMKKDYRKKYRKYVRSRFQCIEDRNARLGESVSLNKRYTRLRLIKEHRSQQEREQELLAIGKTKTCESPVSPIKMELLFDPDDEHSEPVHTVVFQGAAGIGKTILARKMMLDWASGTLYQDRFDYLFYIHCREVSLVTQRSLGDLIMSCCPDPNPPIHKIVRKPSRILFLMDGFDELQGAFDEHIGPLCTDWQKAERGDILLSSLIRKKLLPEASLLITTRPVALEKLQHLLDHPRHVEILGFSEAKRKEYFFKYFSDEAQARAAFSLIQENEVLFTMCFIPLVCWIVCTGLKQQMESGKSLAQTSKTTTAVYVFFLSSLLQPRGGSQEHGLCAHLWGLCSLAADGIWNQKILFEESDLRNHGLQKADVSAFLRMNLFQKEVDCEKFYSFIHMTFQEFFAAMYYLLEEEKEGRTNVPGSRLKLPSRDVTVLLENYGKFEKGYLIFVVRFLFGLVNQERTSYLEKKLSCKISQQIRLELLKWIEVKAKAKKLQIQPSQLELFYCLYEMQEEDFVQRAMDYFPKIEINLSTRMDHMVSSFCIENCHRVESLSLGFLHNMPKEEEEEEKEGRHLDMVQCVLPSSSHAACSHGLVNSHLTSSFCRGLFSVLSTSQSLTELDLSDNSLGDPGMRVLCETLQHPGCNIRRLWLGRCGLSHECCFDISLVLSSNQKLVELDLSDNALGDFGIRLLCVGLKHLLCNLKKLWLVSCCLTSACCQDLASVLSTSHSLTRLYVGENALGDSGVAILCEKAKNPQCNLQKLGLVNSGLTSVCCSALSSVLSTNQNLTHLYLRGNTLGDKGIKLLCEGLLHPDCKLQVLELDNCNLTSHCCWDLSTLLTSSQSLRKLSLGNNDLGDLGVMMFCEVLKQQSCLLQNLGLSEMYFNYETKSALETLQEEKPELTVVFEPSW

Row | IC50 | SMILES
1 | > 2000 nM | Cc1cc2c(c(NC(=O)NS(=O)(=O)c3ccn([C@@H]4CC[C@@H]4O)n3)c1-c1ccn3nccc3c1)CCC2 (relative stereo) [Example 85, 1-(rel-(1R,2S)-2-hydroxycyclobutyl)-N-((6-methyl-5-(pyrazolo[1,5-a]pyridin-5-yl)-2,3-dihydro-1H-inden-4-yl)carbamoyl)-1H-pyrazole-3-sulfonamide]
2 | ≤ 30 nM | Cc1cc2c(c(NC(=O)NS(=O)(=O)c3ccn(C4CC4)n3)c1-c1ccn3nccc3c1)CCC2 [Example 1, 1-cyclopropyl-N-((6-methyl-5-(pyrazolo[1,5-a]pyridin-5-yl)-2,3-dihydro-1H-inden-4-yl)carbamoyl)-1H-pyrazole-3-sulfonamide]
3 | ≤ 30 nM | CC(C)(O)c1csc(S(=O)(=O)NC(=O)Nc2c3c(cc(C#N)c2-c2ccn4cncc4c2)CCC3)c1 [Example 2, N-((6-cyano-5-(imidazo[1,5-a]pyridin-7-yl)-2,3-dihydro-1H-inden-4-yl)carbamoyl)-4-(2-hydroxypropan-2-yl)thiophene-2-sulfonamide]
4 | 30 to 300 nM | Cc1cc2c(c(NC(=O)NS(=O)(=O)C3CC(OC4CC4)C3)c1-c1ccnc3[nH]ccc13)CCC2 (stereo not drawn) [Example 3, 3-cyclopropoxy-N-((6-methyl-5-(1H-pyrrolo[2,3-b]pyridin-4-yl)-2,3-dihydro-1H-inden-4-yl)carbamoyl)cyclobutane-1-sulfonamide]
5 | 30 to 300 nM | Cn1ccc2c(-c3ccc4c(c3NC(=O)NS(=O)(=O)c3cnn(CC5CC5)c3)CCC4)ccnc21 [Example 4, 1-(cyclopropylmethyl)-N-((5-(1-methyl-1H-pyrrolo[2,3-b]pyridin-4-yl)-2,3-dihydro-1H-inden-4-yl)carbamoyl)-1H-pyrazole-4-sulfonamide]
6 | ≤ 30 nM | O=C(Nc1c(-c2ccnc3[nH]ccc23)ccc2c1CCC2)NS(=O)(=O)c1cnn(CC2CC2)c1 [Example 5, N-((5-(1H-pyrrolo[2,3-b]pyridin-4-yl)-2,3-dihydro-1H-inden-4-yl)carbamoyl)-1-(cyclopropylmethyl)-1H-pyrazole-4-sulfonamide]
7 | ≤ 30 nM | Cc1cc2c(c(NC(=O)NS(=O)(=O)c3cnn(CC4CC4)c3)c1-c1ccn3nccc3c1)CCC2 [Example 6, 1-(cyclopropylmethyl)-N-((6-methyl-5-(pyrazolo[1,5-a]pyridin-5-yl)-2,3-dihydro-1H-inden-4-yl)carbamoyl)-1H-pyrazole-4-sulfonamide]
8 | ≤ 30 nM | O=C(Nc1c(-c2ccn3nccc3c2)ccc2c1CCC2)NS(=O)(=O)c1cnn(CC2CC2)c1 [Example 7, 1-(cyclopropylmethyl)-N-((5-(pyrazolo[1,5-a]pyridin-5-yl)-2,3-dihydro-1H-inden-4-yl)carbamoyl)-1H-pyrazole-4-sulfonamide]
9 | ≤ 30 nM | Cc1cc2c(c(NC(=O)NS(=O)(=O)c3cnn(CC4CC4)c3)c1-c1ccnc3[nH]ccc13)CCC2 [Example 8, 1-(cyclopropylmethyl)-N-((6-methyl-5-(1H-pyrrolo[2,3-b]pyridin-4-yl)-2,3-dihydro-1H-inden-4-yl)carbamoyl)-1H-pyrazole-4-sulfonamide]
10 | ≤ 30 nM | Cc1cc2c(c(NC(=O)NS(=O)(=O)c3ccn(CC4CC4)n3)c1-c1ccn3nccc3c1)CCC2 [Example 10, 1-(cyclopropylmethyl)-N-((6-methyl-5-(pyrazolo[1,5-a]pyridin-5-yl)-2,3-dihydro-1H-inden-4-yl)carbamoyl)-1H-pyrazole-3-sulfonamide]
11 | ≤ 30 nM | Cc1cc2c(c(NC(=O)NS(=O)(=O)c3ccn(CC4CCC4)n3)c1-c1ccn3nccc3c1)CCC2 [Example 11, 1-(cyclobutylmethyl)-N-((6-methyl-5-(pyrazolo[1,5-a]pyridin-5-yl)-2,3-dihydro-1H-inden-4-yl)carbamoyl)-1H-pyrazole-3-sulfonamide]
12 | ≤ 30 nM | Cc1cc2c(c(NC(=O)NS(=O)(=O)c3cnn(C4CCC4)c3)c1-c1ccn3nccc3c1)CCC2 [Example 12, 1-cyclobutyl-N-((6-methyl-5-(pyrazolo[1,5-a]pyridin-5-yl)-2,3-dihydro-1H-inden-4-yl)carbamoyl)-1H-pyrazole-4-sulfonamide]
